From patent publication US20150344457A1, “METHODS OF INHIBITING PRMT5” (EPIZYME, INC., priority 2012, published 2015)

What was measured:
[1] = tested on: Z-138 cells; experiment: Z-138 Methylation Assay (In Cell Western for symmetric di-methyl arginine and DNA content); type: cell-based; conditions: Homo sapiens, Table D-2, read-out: ICW EC50
Outline: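 Z-138 cells at 50,000 cells/mL exposed to compound 96 h at 37 °C, then attached to poly-D-lysine plates, fixed with paraformaldehyde and probed with anti-symmetric di-methyl arginine plus DRAQ5 DNA stain. 800/700 nm ratio normalized to DMSO and 3 μM reference controls; IC50 from triplicate wells.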

[2] = tested on: Z-138 cells; experiment: Z-138 Proliferation Assay (Cell Titer Glo, 5 days); type: cell-based; conditions: Homo sapiens, Table D-2
Outline: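 Exponentially growing Z-138 cells (10,000 cells/ml) in RPMI 1640 with 10% FBS are exposed to nine-point 3-fold dilutions (final top concentration 20 μM, 0.2% DMSO) for 5 days at 37° C. Viability is measured as ATP by CellTiter-Glo luminescence. The 50% inhibitory concentration comes from a 4-parameter fit.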

## N#Cc1ccc(-c2cccc(OCC(O)CN3CCc4ccccc4C3)c2)cc1 (stereo not drawn) [Compound D94]
[1]
  EC50: 1 to 10 µM
[2]
  EC50: 10 to 40 µM

## N#Cc1ccccc1-c1cccc(OCC(O)CN2CCc3ccccc3C2)c1 (stereo not drawn) [Compound D93]
[1]
  EC50: 1 to 10 µM
[2]
  EC50: 10 to 40 µM

## Oc1cccc(-c2cccc(OCC(O)CN3CCc4ccccc4C3)c2)c1 (stereo not drawn) [Compound D95]
[1]
  EC50: 1 to 10 µM
[2]
  EC50: 10 to 40 µM
